This test relates to Human B cells. The test can be described thus: IL-10 induction in human B cells cultivated 2 days with anti-IgM plus CpG; IL-10 measured in cell culture supernatants. It counts as cell-based. The following applies: 2 consecutive days, molecule at 0.25 μM final concentration, culture supernatant. The procedure: Human B cells isolated magnetically through negative selection (B Cell Isolation Kit II, human, Miltenyi ref: 130-091-151) were cultivated for 2 consecutive days in the presence of anti-IgM plus CpG in the presence of the indicated molecule (see table 3) at 0.25 μM final concentration. IL-10 was measured in cell culture supernatants.
Human B cells isolated magnetically through negative selection (B Cell Isolation Kit II, human, Miltenyi ref: 130-091-151) were cultivated for 2 consecutive days in the presence of anti-IgM plus CpG in the presence of DMSO (as control) or in the presence of the indicated molecule (as identified in the attached excel file) at 0.25 microM final concentration. IL-10 was measured in cell culture supernatants. NS: non stimulated B cell culture condition.

On to “2-methoxy-N-(1-methyl-2-(pyridin-3-yl)-1H-imidazo[4,5-b]pyridin-5-yl)benzamide + 2-methoxy-N-(3-methyl-2-(pyridin-3-yl)-3H-imidazo[4,5-b]pyridin-5-yl)benzamide [Compound 131]”, for which the “IL-10 Induction Mean (pg/mL) human” value stood at 1.85 pg/mL.
